The conditions of series [1]: commercially available trityl protecting groups, values stated without experiment; cited from earlier work.
Series [2] can be described thus: Stability of the amino modifier reagent in acetonitrile. It counts as physicochemical. As to conditions: room temperature. As to the method: The sulfoxy derivative survives conditions of polynucleotide synthesis and can either be cleaved with standard deblock solution, or left intact for an HPLC purification. […] UV quantification for release of the new protecting group is possible. Extinction coefficients (L/(mol×cm) shown in the Scheme above were measured in 2% TFA/DCM.

Series [3] can be described thus: pKR+ determination of trityl alcohols by UV spectrophotometry in aqueous sulphuric acid solutions (Deno acidity function HR). As to conditions: for pKR+ (477 nm): absorbance at 477 nm. It counts as physicochemical. From the text: The physico-chemical properties of trityl cations have been thoroughly investigated. In 1955 Deno et al reported an empirical Acidity Function HR which allows the comparison of the stability of different trityl cations (N. C. Deno, J. J. Jaruzelski and A. Schriesheim, J. Am. Chem. Soc. 1955, 77, 3044). Using the acidity function and the methods described by Deno it is possible to evaluate the pKR+ parameter for trityl alcohol derivatives, which is a direct indication of the stability of the corresponding trityl cations.
Once the acidity function HR for a particular acidic solution is known, the pKR+ of a triarylcarbinol dissolved in that acidic solution can be calculated in a straightforward manner once the ratio [R^+]/[ROH] has been experimentally determined. Therefore, in order to determine pKR+ values in acidic solutions of known HR, the ratio [R^+]/[ROH] must be established or, what is the equivalent, the degree of ionization of the triarylcarbinol.
The [R^+]/[ROH] ratio can be determined by spectrophotometic means. In particular, for trityl derivatives, UV spectrophotometry is useful since trityl cations and their parent molecules show completely different absorption spectra in the UV region.
In general, the experimental procedure for determining pKR+ for a trityl alcohol is summarised as follows. A solution of the triaryl alcohol in question in acetic acid is prepared in a way that the final concentration of the solutions to be analysed by UV spectrometry are in the range of 10^−5 to 10^−7 molar. A constant amount of the acetic acid solution so prepared is then added to the solutions of sulphuric acid (for instance, using a micropipette) to carry out the UV spectrometry experiments. It is recommended that the values of E are measured at the λmax of the trityl cation.
Starting from the most concentrated sulphuric acid solutions, samples are prepared until it is observed that the absorbance of the samples starts to decay. In the range of concentrations prior to the decay of absorbance, the triaryl alcohol is dissolved in a sufficiently concentrated sulphuric to completely ionise it. Therefore, ε=εR. In the region of sulphuric acid concentrations in which the absorbance of the samples decays, a series of values for ε are collected.
Finally, a concentration of sulphuric acid is reached in which the absorbance at λmax is negligible (or the alcohol starts to precipitate). This indicates the end of the experiment and values for the [R^+]/[ROH] for a series of given HR are available.
The pKR+ can be determined using the equation
Using UV spectrometry, the λmax of the trityl cation was determined to be approximately 477 nm, as illustrated in FIG. 1. Absorbance values were recorded at this wavelength for different concentrations of sulphuric acid. […]

The values that follow come from patent publication US20090182135A1, “Amino modifiers” (priority 2007, published 2009).

Like-named read-outs stand apart in the source and are kept apart here.

Turning to monomethoxytrityl [MMTr], the “pKR+” value in series [1] is reported as −3.40.

Consider `COc1ccc(C(NCCCCCCOP(OCCC#N)N(C(C)C)C(C)C)(c2ccc(OC)cc2)c2ccc([S+](C)[O-])cc2)cc1` (stereo not shown) [DMS(O)MTr amino modifier, 6-(4,4′-dimethoxy-4″-(methylsulfinyl)tritylamino)hexylolxy-(2-cyanoethoxy) diisopropylaminophosphine], for which, in series [2], the “stability of the reagent in solution” value is “stable in acetonitrile at room temperature for at least two weeks”.

Take 4,4′-dimethoxytrityl [DMTr]: the “pKR+” value in series [1] was −1.24.

With `COc1ccc(C(O)(c2ccc(C)cc2)c2ccc(C)cc2)cc1` [MDMeTrOH, 4-methoxy-4′,4″-dimethyltrityl alcohol], the “pKR+ (477 nm)” value in series [3] (H2SO4 20%) is given as −2.7; in series [3] (H2SO4 25%) it was −2.6; in series [3] (H2SO4 30%), −2.5. The “pKR+” value in series [3] (overall value for the trityl alcohol, UV at λmax of the trityl cation in sulphuric acid solutions) is given as −2.6.
